# Reference: patent US7115741B2, “4-thieno[2,3-D]pyrimidin-4-YL piperazine compounds” (priority 2001, dated 2006)
# Test system: platelet ADP receptors
# Assay: ARB binding assay (platelet ADP receptor binding, [3H]2-MeS-ADP)
# Set-up: species or system human
# Details: relative activities of selected compounds in the ARB binding assay
# Description: Utilizing the second assay the potency of inhibition of such compounds with respect to [^3H]2-MeS-ADP binding to whole platelets is determined. [^3H]2-MeS-ADP binding experiments are routinely performed with outdated human platelets collected by standard procedures at hospital blood banks. Apyrase-washed outdated platelets are prepared as follows (all steps at room temperature, if not indicated otherwise):
# Outdated platelet suspensions are diluted with 1 volume of CGS and platelets pelleted by centrifugation at 1900×g for 45 minutes. Platelet pellets are resuspended at 3–6×10^9 platelets/ml in CGS containing 1 U/ml apyrase (grade V, Sigma, St. Louis, Mo.) and incubated for 15 minutes at 37° C. After centrifugation at 730×g for 20 minutes, pellets are resuspended in Hepes-Tyrode's buffer containing 0.1% BSA (Sigma, St. Louis, Mo.) at a concentration of 6.66×10^8 platelets/ml. Binding experiments are performed after >45 minutes resting of the platelets.
# Alternatively, binding experiments are performed with fresh human platelets prepared as described in I.(Inhibition of ADP-Mediated Platelet Aggregation in vitro), except that platelets are resuspended in Hepes-Tyrode's buffer containing 0.1% BSA (Sigma, St. Louis, Mo.) at a concentration of 6.66×10^8 platelets/ml. Very similar results are obtained with fresh and outdated platelets.
# A platelet ADP receptor binding assay using the tritiated potent agonist ligand [^3H]2-MeS-ADP (Jantzen, H. M. et al. (1999) Thromb. Hemost. 81:111–117) has been adapted to the 96-well microtiter format. In an assay volume of 0.2 ml Hepes-Tyrode's buffer with 0.1% BSA and 0.6% DMSO, 1×10^8 apyrase-washed platelets are preincubated in 96-well flat bottom microtiter plates for 5 minutes with serial dilutions of test compounds before addition of 1 nM [^3H]2-MeS-ADP ([^3H]2-methylthioadenosine-5′-diphosphate, ammonium salt; specific activity 48–49 Ci/mmole, obtained by custom synthesis from Amersham Life Science, Inc., Arlington Heights, Ill., or NEN Life Science Products, Boston, Mass.). Total binding is determined in the absence of test compounds. Samples for nonspecific binding may contain 10^−5 M unlabelled 2-MeS-ADP (RBI, Natick, Mass.). After incubation for 15 minutes at room temperature, unbound radioligand is separated by rapid filtration and two washes with cold (4–8° C.) Binding Wash Buffer (10 mM Hepes pH 7.4, 138 mM NaCl) using a 96-well cell harvester (Minidisc 96, Skatron Instruments, Sterling, Va.) and 8×12 GF/C glassfiber filtermats (Printed Filtermat A, for 1450 Microbeta, Wallac Inc., Gaithersburg, Md.). The platelet-bound radioactivity on the filtermats is determined in a scintillation counter (Microbeta 1450, Wallac Inc., Gaithersburg, Md.). Specific binding is determined by subtraction of non-specific binding from total binding, and specific binding in the presence of test compounds is expressed as % of specific binding in the absence of test compounds dilutions.
row,Compound,Relative Activity
1,"CCc1cc2c(N3CCN(C(=O)Cc4ccccc4)CC3)nc(C)nc2s1 [Example 153, 1-[4-(6-ethyl-2-methylthiopheno[3,2-e]pyrimidin-4-yl)piperazinyl]-2-phenylethan-1-one]",+++ (<10 micromolar)
2,"CCc1cc2c(N3CCN(C(=O)C(F)(F)F)CC3)ncnc2s1 [Example 55, 1-[4-(6-ethylthiopheno[3,2-e]pyrimidin-4-yl)piperazinyl]-2,2,2-trifluoroethan-1-one]",+++ (<10 micromolar)
3,"CCc1cc2c(N3CCN(C(=O)CC(F)(F)F)CC3)ncnc2s1 [Example 5, 1-[4-(6-ethylthiopheno[3,2-e]pyrimidin-4-yl)piperazinyl]-3,3,3-trifluoropropan-1-one]",+++ (<10 micromolar)
4,"CCc1cc2c(N3CCN(C(=O)c4ccc5ccccc5n4)CC3)ncnc2s1 [Example 453, [4-(6-Ethyl-thieno[2,3-d]pyrimidin-4-yl)-piperazin-1-yl]-quinolin-2-yl-methanone]",+ (>20 micromolar)
5,"CCc1cc2c(N3CCN(C(=O)CCCCC4CCCCC4)CC3)ncnc2s1 [Example 311, 5-Cyclohexyl-1-[4-(6-ethyl-thieno[2,3-d]pyrimidin-4-yl)-piperazin-1-yl]-pentan-1-one]",+ (>20 micromolar)
6,"CCc1cc2c(N3CCN(C(=O)C(c4ccccc4)N4CCNCC4)CC3)ncnc2s1 (stereo not drawn) [Example 432, 1-[4-(6-Ethyl-thieno[2,3-d]pyrimidin-4-yl)-piperazin-1-yl]-2-phenyl-2-piperazin-1-yl-ethanone]",+ (>20 micromolar)
7,"CCc1cc2c(N3CCN(C(=O)C#Cc4ccccc4)CC3)ncnc2s1 [Example 332, 1-[4-(6-Ethyl-thieno[2,3-d]pyrimidin-4-yl)-piperazin-1-yl]-3-phenyl-propynone]",++ (10–20 micromolar)
8,"CCc1cc2c(N3CCCN(C(=O)CCCOn4nnc5ccccc54)CC3)ncnc2s1 [Example 188, 4-benzotriazolyloxy-1-[4-(6-ethylthiopheno[3,2-e]pyrimidin-4-yl)(1,4-diazaperhydroepinyl)]butan-1-one]",+++ (<10 micromolar)
9,"CCc1cc2c(N3CCN(C(=O)CCCC(=O)O)CC3)ncnc2s1 [Example 390, 5-[4-(6-Ethyl-thieno[2,3-d]pyrimidin-4-yl)-piperazin-1-yl]-5-oxo-pentanoic acid]",+ (>20 micromolar)
10,"CCc1cc2c(N3CCN(C(=O)c4ccncc4)CC3)ncnc2s1 [Example 362, [4-(6-Ethyl-thieno[2,3-d]pyrimidin-4-yl)-piperazin-1-yl]-pyridin-4-yl-methanone]",+ (>20 micromolar)
11,"C#Cc1cc2c(N3CCN(C(=O)CC(F)(F)F)CC3)ncnc2s1 [Example 135, 1-[4-(6-ethlylylthiopheno[3,2-e]pyrimidin-4-yl)piperazinyl]-3,3,3-trifluoropropan-1-one]",+++ (<10 micromolar)
12,"CCc1cc2c(N3CCN(C(=O)Cc4ccccc4)CC3)nc(SC)nc2s1 [Example 169, 1-[4-(6-ethyl-2-methylthiothiopheno[3,2-e]pyrimidin-4-yl)piperazinyl]-2-phenylethan-1-one]",+++ (<10 micromolar)
13,"CCc1cc2c(N3CCN(C(=O)Cc4ccccc4)C(C)C3)ncnc2s1 (stereo not drawn) [Example 197, 1-[4-(6-ethylthiopheno[3,2-e]pyrimidin-4-yl)-2-methylpiperazinyl]-2-phenylethan-1-one]",++ (10–20 micromolar)
14,"O=C(Cc1ccccc1)N1CCN(c2ncnc3sc(Br)cc23)CC1 [Example 125, 1-[4-(6-bromothiopheno[3,2-e]pyrimidin-4-yl)piperazinyl]-2-phenylethan-1-one]",+++ (<10 micromolar)
15,"CCc1cc2c(N3CCN(C(=O)[C@@H]4CCC[C@H](Cn5nnc6ccccc65)C4)CC3)ncnc2s1 [Example 279, (3-Benzotriazol-1-ylmethyl-cyclohexyl)-[4-(6-ethyl-thieno[2,3-d]pyrimidin-4-yl)-piperazin-1-yl]-methanone]",+++ (<10 micromolar)
16,"CCc1cc2c(N3CCN(C(=O)CN4CCCC(n5nnc6ccccc65)C4)CC3)ncnc2s1 (stereo not drawn) [Example 271, 2-(3-Benzotriazol-1-yl-piperidin-1-yl)-1-[4-(6-ethyl-thieno[2,3-d]pyrimidin-4-yl)-piperazin-1-yl]-ethanone]",++ (10–20 micromolar)
17,"CCc1cc2c(N3CCN(C(=O)C=C(C(F)(F)F)C(F)(F)F)CC3)ncnc2s1 [Example 59, 1-[4-(6-ethylthopheno[3,2-e]pyrimidin-4-yl)pperazinyl]-4,4,4-trifluoro-3-(trifluoromethyl)but-2-en-1-one]",+ (>20 micromolar)
18,"CCc1cc2c(N3CCN(C(=O)[C@H](C)c4ccccc4)CC3)ncnc2s1 [Example 349, 1-[4-(6-Ethyl-thieno[2,3-d]pyrimidin-4-yl)-piperazin-1-yl]-2-phenyl-propan-1-one]",+ (>20 micromolar)
19,"CCc1cc2c(N3CCN(C(=O)CCCSc4nccn4-c4ccccc4)CC3)ncnc2s1 [Example 429, 1-[4-(6-Ethyl-thieno[2,3-d]pyrimidin-4-yl)-piperazin-1-yl]-4-(1-phenyl-1H-imidazol-2-ylsulfanyl)-butan-1-one]",+ (>20 micromolar)
20,"CCc1cc2c(N3CCN(C(=O)C(c4ccccc4)c4ccccc4)CC3)ncnc2s1 [Example 70, 1-[4-(6-ethylthiopheno[3,2-e]pyrimidin-4-yl)piperazinyl]-2,2-diphenylethan-1-one]",+ (>20 micromolar)
21,"CCc1cc2c(N3CCN(C(=O)CCCNc4ncccn4)CC3)ncnc2s1 [Example 430, 1-[4-(6-Ethyl-thieno[2,3-d]pyrimidin-4-yl)-piperazin-1-yl]-4-(pyrimidin-2-ylamino)-butan-1-one]",+ (>20 micromolar)
22,"CCc1cc2c(N3CCN(C(=O)Cc4ccccc4)CC3)nc(O)nc2s1 [Example 183, 1-[4-(6-ethyl-2-hydroxythiopheno[3,2-e]pyrimidin-4-yl)piperazinyl]-2-phenylethan-1-one]",+ (>20 micromolar)
23,"CCc1cc2c(N3CCN(C(=O)CCCCC#N)CC3)ncnc2s1 [Example 395, 6-[4-(6-Ethyl-thieno[2,3-d]pyrimidin-4-yl)-piperazin-1-yl]-6-oxo-hexanenitrile]",+ (>20 micromolar)
24,"CCc1cc2c(N3CCN(C(=O)Cc4ccccc4)CC3c3ccccc3)ncnc2s1 (stereo not drawn) [Example 206, 1-[4-(6-ethylthiopheno[3,2-e]pyrimidin-4-yl)-3-phenylpiperazinyl]-2-phenylethan-1-one]",+ (>20 micromolar)
25,"CCc1cc2c(N3CCN(C(=O)CCCCOc4ccccc4)CC3)ncnc2s1 [Example 305, 1-[4-(6-Ethyl-thieno[2,3-d]pyrimidin-4-yl)-piperazin-1-yl]-5-phenoxy-pentan-1-one]",+++ (<10 micromolar)
26,"CCc1cc2c(N3CCN(C(=O)CCCn4nnc5ccccc54)CC3)ncnc2s1 [Example 372, 4-Benzotriazol-1-yl-1-[4-(6-Ethyl-thieno[2,3-d]pyrimidin-4-yl)-piperazin-1-yl]-butan-1-one]",++ (10–20 micromolar)
27,"CCOC(=O)c1nc(N2CCN(C(=O)Cc3ccccc3)CC2)c2cc(CC)sc2n1 [Example 236, 6-Ethyl-4-(4-phenylacetyl-piperazin-1-yl)-thieno[2,3-d]pyrimidine-2-carboxylic acid ethyl ester]",+++ (<10 micromolar)
28,"CCc1cc2c(N3CCN(C(=O)Cc4ccncc4)CC3)ncnc2s1 [Example 67, 1-[4-(6-ethylthiopheno[3,2-e]pyrimidin-4-yl)piperazinyl]-2-(4-pyridyl)ethan-1-one]",++ (10–20 micromolar)
29,"CCc1cc2c(N3CCN(C(=O)c4cccc(COn5nnc6ccccc65)c4)CC3)ncnc2s1 [Example 250, [3-(Benzotriazol-1-yloxymethyl)-phenyl]-[4-(6-ethyl-thieno[2,3-d]pyrimidin-4-yl)-piperazin-1-yl]-methanone]",++ (10–20 micromolar)
30,"CCc1cc2c(N3CCN(C(=O)c4ccc(-c5ccccc5)s4)CC3)ncnc2s1 [Example 408, [4-(6-Ethyl-thieno[2,3-d]pyrimidin-4-yl)-piperazin-1-yl]-(5-phenyl-thiophen-2-yl)-methanone]",++ (10–20 micromolar)
